How the values were obtained:
Somatostatin receptor = test: Binding affinity to somatostatin receptor by radioligand binding assay; type: protein assay
[1] = Binding affinity to chemokine receptor by radioligand binding assay
[2] = molecular target: T1, 5-hydroxytryptamine receptor 1A (Homo sapiens, UniProt P08908); test: Activity against 5HT1A receptor by Gi-[35S]GTP-gamma-S binding assay; type: functional
T1 sequence (P08908 whole entry): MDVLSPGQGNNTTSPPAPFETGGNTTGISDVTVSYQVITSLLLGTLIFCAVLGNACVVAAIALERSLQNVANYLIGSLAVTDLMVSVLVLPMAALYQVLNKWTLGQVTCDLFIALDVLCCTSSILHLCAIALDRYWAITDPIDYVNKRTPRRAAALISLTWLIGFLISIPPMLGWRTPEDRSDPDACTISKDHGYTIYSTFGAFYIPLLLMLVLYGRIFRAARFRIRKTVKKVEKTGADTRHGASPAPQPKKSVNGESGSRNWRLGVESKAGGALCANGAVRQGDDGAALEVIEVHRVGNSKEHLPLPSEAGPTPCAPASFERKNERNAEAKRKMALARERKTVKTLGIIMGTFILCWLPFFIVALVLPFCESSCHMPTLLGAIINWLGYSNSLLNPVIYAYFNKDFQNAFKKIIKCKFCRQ

[3] = molecular target: T1, 5-hydroxytryptamine receptor 1A; test: Displacement of [3H]8-OH-DPAT from human 5HT1A receptor in HEK293 cells
Dopamine receptor = test: Binding affinity to dopamine receptor by radioligand binding assay; type: protein assay
[4] = Protein binding in human serum at 10 uM; type: ADME, organism-based; conditions: read-out: PPB (converted)
[5] = Binding affinity to vasopressin receptor by radioligand binding assay
[6] = molecular target: Adrenergic receptor alpha-1 (Rattus norvegicus) (UniProt P15823+P23944+P43140); test: Displacement of [3H]prazosin from Adrenergic alpha-1 receptor in rat cerebral cortex cells at 1 uM; type: cell-based
Cytochrome P450 2C19 = Cytochrome P450 2C19 (Homo sapiens, UniProt P33261); test: Inhibition of human recombinant cytochrome P450 2C19; type: ADME; conditions: recombinant enzyme
[7] = Binding affinity to bradykinin receptor by radioligand binding assay
D(2) dopamine receptor = D(2) dopamine receptor (Homo sapiens, UniProt P14416); test: Binding affinity to D2 receptor by radioligand binding assay
[8] = molecular target: Serotonin 3 receptor (5HT3) (Mus musculus, UniProt Q9JHJ5+P23979); test: Binding affinity to mouse 5HT3 receptor by radioligand binding assay; type: protein assay
[9] = molecular target: Endothelin receptor, ET-A/ET-B (Homo sapiens, UniProt P24530+P25101); test: Binding affinity to endothelin receptor by radioligand binding assay; type: protein assay
[10] = molecular target: 5-hydroxytryptamine receptor 5A (Homo sapiens, UniProt P47898); test: Binding affinity to human 5HT5A receptor by radioligand binding assay
[11] = Half life in human liver microsome at 5 uM; type: ADME; conditions: liver microsomes
[12] = molecular target: Voltage-gated inwardly rectifying potassium channel KCNH2 (Homo sapiens, UniProt Q12809); test: Binding affinity to potassium channel by radioligand binding assay
[13] = molecular target: 5-hydroxytryptamine receptor 2A (Homo sapiens, UniProt P28223)
Description: Binding affinity to 5HT2A receptor by radioligand binding assay

[14] = molecular target: Sodium-dependent noradrenaline transporter (Homo sapiens, UniProt P23975); test: Binding affinity to norepinephrine transporter by radioligand binding assay
Chain of Sodium-dependent noradrenaline transporter (P23975 whole entry): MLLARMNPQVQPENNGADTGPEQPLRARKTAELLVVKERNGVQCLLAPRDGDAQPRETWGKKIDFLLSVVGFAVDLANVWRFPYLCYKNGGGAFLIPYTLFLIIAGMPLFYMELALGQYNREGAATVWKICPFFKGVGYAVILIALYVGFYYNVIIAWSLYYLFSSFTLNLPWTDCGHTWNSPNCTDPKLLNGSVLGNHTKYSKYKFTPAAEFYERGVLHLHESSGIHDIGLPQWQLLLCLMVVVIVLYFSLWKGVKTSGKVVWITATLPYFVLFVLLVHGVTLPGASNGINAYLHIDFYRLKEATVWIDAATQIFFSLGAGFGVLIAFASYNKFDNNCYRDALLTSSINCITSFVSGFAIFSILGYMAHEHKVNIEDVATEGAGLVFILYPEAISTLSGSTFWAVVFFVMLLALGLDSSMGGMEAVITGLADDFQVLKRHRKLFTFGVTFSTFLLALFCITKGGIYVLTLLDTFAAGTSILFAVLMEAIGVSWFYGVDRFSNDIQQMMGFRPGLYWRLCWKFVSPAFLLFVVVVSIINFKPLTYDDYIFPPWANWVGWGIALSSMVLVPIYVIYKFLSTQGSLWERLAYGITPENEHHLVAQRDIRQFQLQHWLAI

Chain of 5-hydroxytryptamine receptor 2A (P28223 whole entry): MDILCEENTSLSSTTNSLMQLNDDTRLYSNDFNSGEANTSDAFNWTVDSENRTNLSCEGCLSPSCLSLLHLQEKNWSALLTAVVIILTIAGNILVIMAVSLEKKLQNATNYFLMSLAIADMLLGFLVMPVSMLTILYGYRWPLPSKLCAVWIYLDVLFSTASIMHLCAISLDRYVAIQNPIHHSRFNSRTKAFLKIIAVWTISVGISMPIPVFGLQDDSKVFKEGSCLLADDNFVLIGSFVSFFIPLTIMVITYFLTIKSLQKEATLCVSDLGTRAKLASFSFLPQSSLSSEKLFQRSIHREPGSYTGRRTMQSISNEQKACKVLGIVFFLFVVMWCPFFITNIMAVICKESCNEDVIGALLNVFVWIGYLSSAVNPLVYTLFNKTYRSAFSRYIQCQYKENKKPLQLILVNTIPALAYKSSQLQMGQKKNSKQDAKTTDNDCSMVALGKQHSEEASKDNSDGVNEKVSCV
Chain of D(2) dopamine receptor (P14416 whole entry): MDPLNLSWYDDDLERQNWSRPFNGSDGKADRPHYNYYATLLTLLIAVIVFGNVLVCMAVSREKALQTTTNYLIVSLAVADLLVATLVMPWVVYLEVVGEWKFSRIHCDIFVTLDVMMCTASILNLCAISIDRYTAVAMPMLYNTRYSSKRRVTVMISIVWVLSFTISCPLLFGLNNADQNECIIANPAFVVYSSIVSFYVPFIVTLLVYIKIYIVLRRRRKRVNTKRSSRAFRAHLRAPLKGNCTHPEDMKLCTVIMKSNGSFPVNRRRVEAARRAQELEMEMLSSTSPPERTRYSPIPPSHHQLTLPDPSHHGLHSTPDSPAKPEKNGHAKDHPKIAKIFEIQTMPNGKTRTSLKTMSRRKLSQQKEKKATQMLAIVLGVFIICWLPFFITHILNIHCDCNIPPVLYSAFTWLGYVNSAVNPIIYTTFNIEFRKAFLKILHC
Chain of Voltage-gated inwardly rectifying potassium channel KCNH2 (Q12809 whole entry): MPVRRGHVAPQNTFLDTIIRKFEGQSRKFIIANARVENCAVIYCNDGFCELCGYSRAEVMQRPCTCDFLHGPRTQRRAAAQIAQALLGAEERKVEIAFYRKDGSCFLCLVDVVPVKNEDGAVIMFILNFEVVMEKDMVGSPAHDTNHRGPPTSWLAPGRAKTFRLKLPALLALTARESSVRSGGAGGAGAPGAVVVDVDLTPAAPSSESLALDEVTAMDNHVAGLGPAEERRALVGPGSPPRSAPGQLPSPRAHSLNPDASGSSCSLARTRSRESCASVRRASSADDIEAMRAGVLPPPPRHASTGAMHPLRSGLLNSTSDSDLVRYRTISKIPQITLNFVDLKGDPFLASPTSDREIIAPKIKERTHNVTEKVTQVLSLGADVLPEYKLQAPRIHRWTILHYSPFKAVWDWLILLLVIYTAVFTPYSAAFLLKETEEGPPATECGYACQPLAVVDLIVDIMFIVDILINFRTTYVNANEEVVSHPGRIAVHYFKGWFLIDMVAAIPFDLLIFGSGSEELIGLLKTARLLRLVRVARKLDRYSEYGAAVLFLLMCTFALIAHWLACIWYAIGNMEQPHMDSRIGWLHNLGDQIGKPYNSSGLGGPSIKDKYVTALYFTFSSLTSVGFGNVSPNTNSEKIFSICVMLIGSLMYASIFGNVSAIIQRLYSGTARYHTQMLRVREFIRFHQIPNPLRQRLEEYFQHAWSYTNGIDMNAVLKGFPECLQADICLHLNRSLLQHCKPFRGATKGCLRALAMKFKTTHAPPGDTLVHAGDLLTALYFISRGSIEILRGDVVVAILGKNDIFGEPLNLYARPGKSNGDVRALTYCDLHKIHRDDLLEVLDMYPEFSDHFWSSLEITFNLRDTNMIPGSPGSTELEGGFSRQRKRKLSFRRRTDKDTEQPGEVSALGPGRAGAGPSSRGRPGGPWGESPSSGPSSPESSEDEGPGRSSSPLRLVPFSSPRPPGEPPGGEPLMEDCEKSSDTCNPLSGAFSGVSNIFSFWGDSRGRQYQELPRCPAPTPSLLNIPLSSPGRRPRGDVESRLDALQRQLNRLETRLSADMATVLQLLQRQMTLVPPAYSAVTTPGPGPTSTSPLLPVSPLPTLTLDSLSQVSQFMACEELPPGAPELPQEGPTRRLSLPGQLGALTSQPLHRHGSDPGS
Chain of Cytochrome P450 2C19 (P33261 whole entry): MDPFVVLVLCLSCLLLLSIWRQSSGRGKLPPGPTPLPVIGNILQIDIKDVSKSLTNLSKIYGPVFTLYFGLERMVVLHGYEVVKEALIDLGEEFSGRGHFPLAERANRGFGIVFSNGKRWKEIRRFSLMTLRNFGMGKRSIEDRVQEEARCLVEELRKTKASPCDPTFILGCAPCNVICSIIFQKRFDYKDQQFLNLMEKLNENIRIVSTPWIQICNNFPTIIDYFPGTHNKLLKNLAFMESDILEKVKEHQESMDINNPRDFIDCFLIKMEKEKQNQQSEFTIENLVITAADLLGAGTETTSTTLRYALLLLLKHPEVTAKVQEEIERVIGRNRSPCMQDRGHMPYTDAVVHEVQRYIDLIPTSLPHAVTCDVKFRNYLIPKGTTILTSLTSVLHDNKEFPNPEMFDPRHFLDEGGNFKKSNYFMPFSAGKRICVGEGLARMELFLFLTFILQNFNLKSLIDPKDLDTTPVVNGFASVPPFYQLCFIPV
Chain of 5-hydroxytryptamine receptor 5A (P47898 whole entry): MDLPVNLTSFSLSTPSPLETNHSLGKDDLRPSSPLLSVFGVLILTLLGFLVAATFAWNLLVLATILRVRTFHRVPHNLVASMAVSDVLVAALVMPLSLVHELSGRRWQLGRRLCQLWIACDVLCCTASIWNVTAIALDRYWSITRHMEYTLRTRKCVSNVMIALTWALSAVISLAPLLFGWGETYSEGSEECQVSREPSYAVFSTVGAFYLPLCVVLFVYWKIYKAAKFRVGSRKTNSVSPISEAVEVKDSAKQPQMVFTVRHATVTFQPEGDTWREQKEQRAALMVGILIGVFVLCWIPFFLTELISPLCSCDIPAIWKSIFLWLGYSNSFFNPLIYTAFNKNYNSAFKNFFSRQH

SMILES: CC(=O)Nc1cccc(N2CCN(CCCCNS(=O)(=O)CC3CCCCC3)CC2)c1 [NALUZOTAN]
- Ki (Somatostatin receptor): > 2 µM
- Ki [1]: > 2 µM
- EC50 [2]: 0.02 µM
- Ki [3]: 0.0051 µM
- Ki (Dopamine receptor): > 2 µM
- fraction unbound at 10 µM [4]: 0.08
- Ki [5]: > 2 µM
- Activity [6]: 47%
- Inhibition (Cytochrome P450 2C19): Not Active
- Ki [7]: > 2 µM
- Ki (D(2) dopamine receptor): > 2 µM
- Ki [8]: > 5 µM
- Ki [9]: > 2 µM
- Ki [10]: > 5 µM
- half-life at 5 µM [11]: 28 min
- Ki [12]: > 2 µM
- Ki [13]: > 2 µM
- Ki [14]: > 2 µM
